This is an account of results in patent US20040006236A1, “Diaminopropionic acid derivatives” (priority 1999, published 2004).

Assay [1] addresses T1, LFA-1 binding to immobilized ICAM-1 (Homo sapiens, UniProt P05107+P20701).
T1 construct: made in house; host or cells: transfected 293 cells (LFA-1)
Kind of assay: LFA-1/ICAM-1 protein-protein assay (solid-phase ELISA). The settings on record: read-out: LFA-1/ICAM-1 Protein-Protein Assay IC50. The gist of the method: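 Human 5dICAM-Ig (ICAM-1 extracellular domain–IgG Fc) coated on plates; membrane-bound LFA-1 from transfected 293 cells (280 ng/mL) added with compound in Mn2+-containing HEPES buffer pH 7.2, 2 h at 37° C. Bound LFA-1 detected via anti-β2 antibody and HRP/TMB at 450 nm; IC50s determined.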
On the technique in general: An ELISA detects its analyte on a solid surface through an enzyme-linked reagent.

The test system of assay [2] is T lymphocyte proliferation (C57BI/6 spleen cells with irradiated BALB/c spleen cells). Kind of assay: Mixed lymphocyte reaction (MLR), one-way. Format: cell-based, mice. The settings on record: Mus musculus, T-lymphocyte; read-out: MLR IC50. In short, it runs like this: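 One-way murine MLR: C57BI/6 responder splenocytes proliferate against irradiated BALB/c stimulators while exposed to serially diluted antagonists in supplemented RPMI1640 for 3 days. Proliferation read as [3H]-thymidine uptake over a final 6 h pulse (0.5 μCi/well), scintillation counted.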

T1 sequence (P20701 26-1170): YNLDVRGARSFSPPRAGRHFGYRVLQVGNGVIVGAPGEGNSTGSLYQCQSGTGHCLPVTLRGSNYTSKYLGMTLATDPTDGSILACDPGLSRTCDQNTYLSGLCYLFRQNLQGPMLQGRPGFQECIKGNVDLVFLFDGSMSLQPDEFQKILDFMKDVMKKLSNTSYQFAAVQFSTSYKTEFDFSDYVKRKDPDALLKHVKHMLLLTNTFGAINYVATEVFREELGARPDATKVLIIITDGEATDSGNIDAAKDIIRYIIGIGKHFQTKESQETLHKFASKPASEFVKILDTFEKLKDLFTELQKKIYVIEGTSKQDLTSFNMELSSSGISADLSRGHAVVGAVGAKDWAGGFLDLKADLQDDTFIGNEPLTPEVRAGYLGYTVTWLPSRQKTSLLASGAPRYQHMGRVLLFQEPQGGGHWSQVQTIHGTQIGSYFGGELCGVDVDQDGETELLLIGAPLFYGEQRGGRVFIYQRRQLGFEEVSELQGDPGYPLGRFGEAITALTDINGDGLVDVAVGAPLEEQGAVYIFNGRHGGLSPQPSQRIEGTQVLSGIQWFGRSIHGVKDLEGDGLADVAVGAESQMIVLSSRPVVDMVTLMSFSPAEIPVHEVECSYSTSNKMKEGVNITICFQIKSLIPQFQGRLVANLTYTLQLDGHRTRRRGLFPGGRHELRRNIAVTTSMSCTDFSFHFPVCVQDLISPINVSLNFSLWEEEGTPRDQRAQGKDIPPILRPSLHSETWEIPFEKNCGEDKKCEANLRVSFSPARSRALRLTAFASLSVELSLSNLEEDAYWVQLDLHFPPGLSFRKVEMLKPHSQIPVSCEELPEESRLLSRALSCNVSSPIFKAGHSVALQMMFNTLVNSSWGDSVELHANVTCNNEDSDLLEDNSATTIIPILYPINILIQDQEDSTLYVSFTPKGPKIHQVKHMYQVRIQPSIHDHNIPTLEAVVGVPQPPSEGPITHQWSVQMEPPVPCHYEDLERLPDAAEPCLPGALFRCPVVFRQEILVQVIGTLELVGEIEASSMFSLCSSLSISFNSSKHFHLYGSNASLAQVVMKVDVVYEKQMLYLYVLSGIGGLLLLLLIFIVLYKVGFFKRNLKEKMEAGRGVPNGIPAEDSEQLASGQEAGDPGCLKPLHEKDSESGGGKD
T1 sequence (P05107 23-769): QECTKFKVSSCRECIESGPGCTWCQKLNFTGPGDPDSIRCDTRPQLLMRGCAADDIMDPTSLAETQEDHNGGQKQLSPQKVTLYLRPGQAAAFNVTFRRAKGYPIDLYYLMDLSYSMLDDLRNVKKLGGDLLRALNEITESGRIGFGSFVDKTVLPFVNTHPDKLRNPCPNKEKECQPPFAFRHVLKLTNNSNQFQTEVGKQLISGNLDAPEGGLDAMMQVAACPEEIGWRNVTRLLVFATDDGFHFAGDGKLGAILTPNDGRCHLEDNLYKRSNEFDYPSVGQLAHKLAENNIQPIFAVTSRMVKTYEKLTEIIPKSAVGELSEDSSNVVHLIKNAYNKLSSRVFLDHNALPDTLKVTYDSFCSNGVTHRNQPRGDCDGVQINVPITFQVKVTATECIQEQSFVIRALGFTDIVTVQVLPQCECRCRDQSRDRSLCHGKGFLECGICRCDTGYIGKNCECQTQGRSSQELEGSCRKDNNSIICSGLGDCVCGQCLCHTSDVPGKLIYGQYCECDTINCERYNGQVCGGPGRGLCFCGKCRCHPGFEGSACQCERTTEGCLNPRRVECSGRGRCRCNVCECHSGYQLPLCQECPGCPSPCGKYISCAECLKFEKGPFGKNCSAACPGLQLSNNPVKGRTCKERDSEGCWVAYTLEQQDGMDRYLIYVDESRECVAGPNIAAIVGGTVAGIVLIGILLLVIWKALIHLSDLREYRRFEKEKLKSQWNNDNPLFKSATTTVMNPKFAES

Turning to `CSCC[C@H](N)C(=O)NC[C@H](NC(=O)c1ccc(C(=O)NCc2cccc(O)c2)cc1Cl)C(=O)O` [Example 197], the values for the IC50 in assay [1] and in assay [2] were 4.9 nM and 22500 nM, respectively.

Turning to `O=C(NCc1cccc(O)c1)c1ccc(C(=O)N[C@@H](CNC(=O)c2cccc3ccccc23)C(=O)O)c(Cl)c1` [Example 178], the IC50 in assay [1] is 2.3 nM; in assay [2], 900 nM.

Regarding `O=C(NCc1cccc(O)c1)c1ccc(C(=O)N[C@@H](CNC(=O)c2ccccc2)C(=O)O)c(Cl)c1` [Example 302, 3-benzoylamino-N-[2-chloro-4-[[[(3-hydroxyphenyl)methyl]amino]carbonyl]benzoyl]-L-alanine], the results for the IC50 in assay [1] and in assay [2] were 0.9 nM and 310 nM, respectively.

On to `O=C(NCc1cccc2c1CCN2)c1ccc(C(=O)N[C@@H](CNC(=O)c2cccs2)C(=O)O)c(Cl)c1` [Example 318, 3-(thiophene-2-carbonyl)amino-N-[2-chloro-4-[[(2,3-dihydro-1H-indol-4-ylmethyl)amino]carbonyl]benzoyl]-L-alanine], for which the IC50 in assay [1] stood at 1.9 nM; in assay [2], 1850 nM.

With `NCCCC(=O)NC[C@H](NC(=O)c1ccc(C(=O)NCc2cccc(O)c2)cc1Cl)C(=O)O` [Example 261, N-[2-chloro-4-[[[(3-hydroxyphenyl)methyl]amino]-carbonyl]benzoyl]-3-(4-aminobutanoylamino)-L-alanine], the IC50 in assay [1] amounted to 2.2 nM; in assay [2] it was 780 nM.

With `Nc1cccc(CNC(=O)c2ccc(C(=O)N[C@@H](CNC(=O)c3cccs3)C(=O)O)c(Br)c2)c1` [Example 334, N-[4-[[[(3-aminophenyl)methyl]amino]carbonyl]-2-bromobenzoyl]-3-(thiophene-2-carbonyl)amino-L-alanine], the IC50 in assay [1] turned out to be 3 nM; in assay [2] it was 495 nM.

On to `O=C(NC[C@H](NC(=O)c1c(Cl)cccc1Cl)C(=O)O)c1ccccc1` [Example 219], for which the IC50 in assay [1] was 13 nM; in assay [2], 7250 nM.

As to `Cc1cc(C(=O)NCc2cccc(O)c2)cc(C)c1C(=O)N[C@@H](CNC(=O)c1cccs1)C(=O)O` [Example 330], the IC50 was 1.4 nM in assay [1] and 32 nM in assay [2].

As for `N[C@@H](CCC(=O)NC[C@H](NC(=O)c1ccc(C(=O)NCc2cccc(O)c2)cc1Cl)C(=O)O)C(=O)O` [Example 202], the values for the IC50 in assay [1] and in assay [2] were 1.8 nM and 500 nM, respectively.

In the case of `NCCCC[C@H](N)C(=O)NC[C@H](NC(=O)c1ccc(C(=O)NCc2cccc(O)c2)cc1Cl)C(=O)O` [Example 198], the IC50 is 12 nM in assay [1] and 21500 nM in assay [2].

Take `O=C(NCc1cccc2[nH]cnc12)c1ccc(C(=O)N[C@@H](CNC(=O)c2cccs2)C(=O)O)c(Cl)c1` [Example 322]: the results for the IC50 in assay [1] and in assay [2] were 8.5 nM and 3600 nM, respectively.
